ChEMBL document CHEMBL1137836, “Identification of a potent and rapidly reversible inhibitor of the 20S-proteasome” (Bioorg Med Chem Lett, 2004)

Test system: Proteasome
Assay: Concentration required for reversal inhibition of 20S-proteasome
Type: subcellular

Compound | IC50 [nM]
CC[C@H](NC(=O)[C@H](Cc1ccccc1)N1CC[C@](NC(=O)OCc2ccccc2)(C(C)C)C1=O)B(O)O | 30
Cc1cccc(S(=O)(=O)N[C@]2(C(C)C)CCN([C@@H](CC3CCCCC3)C(=O)N[C@@H](CC(C)C)B(O)O)C2=O)c1 | 8
Cc1cccc(S(=O)(=O)N[C@]2(C(C)C)CCN([C@@H](CC3CCCCC3)C(=O)N[C@H](B(O)O)C(C)C)C2=O)c1 | 28
CC[C@H](NC(=O)[C@H](CC1CCCCC1)N1CC[C@](NS(=O)(=O)c2cccc(C)c2)(C(C)C)C1=O)B(O)O | 30

Other lines, results leading:

IC50 [nM] | Compound
1000 | CC[C@H](NC(=O)[C@H](C)N1CC[C@](NC(=O)OCc2ccccc2)(C(C)C)C1=O)B(O)O
30 | CC[C@H](NC(=O)[C@H](CC1CCCCC1)N1CC[C@](NC(=O)OCc2ccccc2)(C(C)C)C1=O)B(O)O
